Test [1] concerns CTPS1-deficient cells. As to the kind of experiment: Proliferation and CD25 expression of CTPS1-deficient T cells after addition of nucleotides or nucleosides. It is filed as cell-based, human. The following applies: addition of nucleotides or nucleosides before stimulation. The text has this: (§1) Informed consent was obtained from donors, patients and families of patients. The study and protocols conform to the 1975 declaration of Helsinki as well as to local legislation and ethical guidelines. Genomic DNA extracted from peripheral blood cells was used for whole exome sequencing (Illumina) and sequencing of CTPS1. PBMCs were Ficoll-purified and activated with phytohemagglutinin (PHA) for 3 days, and then cultured in RPMI medium supplemented with 5% type AB human serum and IL-2 (100 UI/ml). T-cell blasts were restimulated with various mitogens and analyzed for memory and activation markers, calcium flux, cytokine secretions, apoptosis and TCR-CD3 signaling cascade molecules by immunoblotting. CTPS1 protein was detected by immunoblotting with an antibody raised against residues in the middle of the protein (341 to 355) (#SAB111071, Sigma). […] Proliferation was assessed after 96 hours by monitoring the dilution of CellTrace violet dye labelling. Cell cycle was determined by measuring the incorporation of EdU into newly synthesized DNA during 40 hours. The division indexes were calculated with the Flowjo software (BD Biosciences). For gene silencing of CTPS1 by shRNA expression (Openbiosystems), cells were transduced at day 3 of PHA stimulation. For rescue experiments, CTPS1-deficient cells were transduced with a lentiviral vector (Invitrogen) containing the CTPS1 gene and proliferation was performed 5 days after transduction. In long-term expansions, cells were repeatedly stimulated with CD3/CD28-coated beads every 48 h and the transduced GFP^+ cells in the cultures were determined by every 24 h. The intracellular content of nucleotides was measured by liquid chromatography-mass spectrometry (UPLC-xevoTQS, Waters). P values were calculated by two-tailed Student's t-test using PRISM software (GraphPad).

Test [2] concerns control T-cells. Description: T-cell proliferation in response to CD3 activation (CellTrace violet dye dilution). It is filed as cell-based, human. The following applies: nucleotide added to deazauridine-treated control T cells.
Text: as §1, with “For gene silencing of CTPS1 by shRNA expression (Openbiosystems), cells were transduced at day 3 of PHA stimulation. For rescue experiments, CTPS1-deficient cells were transduced with a lentiviral vector (Invitrogen) containing the CTPS1 gene and proliferation was performed 5 days after transduction.” left out, “The intracellular content of nucleotides was measured by liquid chromatography-mass spectrometry (UPLC-xevoTQS, Waters). P values were calculated by two-tailed Student's t-test using PRISM software (GraphPad).” left out

“Also recorded” adds a separate entry of the source.

Turning to `Nc1ccn([C@@H]2O[C@H](COP(=O)(O)OP(=O)(O)OP(=O)(O)O)[C@@H](O)[C@H]2O)c(=O)n1` [CTP, cytidine nucleotide triphosphate], in test [1], the “CD25 expression of CTPS1-deficient cells” value is given as “recovered to a normal level” and the “proliferation of CTPS1-deficient cells” value is reported as “recovered to a normal level; also recorded: restored to normal level”. The “reversion of the inhibition of T-cell proliferation by deazauridine” value in test [2] was “fully reverted”.

Regarding `Nc1ccn([C@@H]2O[C@H](CO)[C@@H](O)[C@H]2O)c(=O)n1` [cytidine], in test [1], the “CD25 expression of CTPS1-deficient cells” value is “recovered to a normal level” and the “proliferation of CTPS1-deficient cells” value was “recovered to a normal level; also recorded: restored”.

`O=c1ccn([C@@H]2O[C@H](COP(=O)(O)OP(=O)(O)OP(=O)(O)O)[C@@H](O)[C@H]2O)c(=O)[nH]1` [UTP]: the “reversion of the inhibition of T-cell proliferation by deazauridine” value in test [2] is given as “partially”.

These data come from US20180185476A1, “METHODS AND PHARMACEUTICAL COMPOSITIONS FOR INHIBITING LYMPHOCYTE PROLIFERATION IN A SUBJECT IN NEED THEREOF” (INSERM (Institut National de la Sante et de la Recherche …, priority 2013, published 2018).
